Like-named read-outs stand apart in the source and are kept apart here.
Legend:
[1] = Log P, 1-octanol/water partition; format: physicochemical; conditions: 1-octanol/water (1:1)
Experimental: The log P values of TPA compounds were obtained according to previously reported methods.[66] 1-octanol was first presaturated with water. Equal volume and concentration of TPA-NC-1, TPA-0, and TPA-1 were added to a 1-octanol/water (1:1) mixture and vortexed for 1 min. The mixture was then centrifuged for 5 min at 13,500 rpm. After that, the absorptions of the compound in the 1-octanol and water phases were measured. The concentrations of the compound in both phases were calculated by using the absorption calibration curve of the corresponding compound. Log P = log (concentration of the compound in 1-octanol/concentration of the compound in water).

[2] = test system: S. aureus biofilm formation; test: S. aureus biofilm inhibition assay in the dark (crystal violet); format: cell-based; conditions: Staphylococcus aureus, light or radiation study, without light irradiation
Experimental: For biofilm inhibition assay, overnight culture of S. aureus in TSB was diluted to 1 × 10^7 CFU/mL in TSB (with 1% glucose). Ten μL of the diluted bacteria were added to a 96-well plate containing 90 μL of serial diluted TPA-1 in TSB (with 1% glucose). After overnight incubation at 37 °C in darkness, the medium in the well was removed. The remaining biofilm was washed with 200 μL of PBS (3 times) and fixed with 100 μL of methanol for 10 min. The well was left for drying. Then, 150 μL of 0.1% crystal violet was added to the wells and stained for 10 min. The crystal violet was removed, and the wells were washed with 200 μL of PBS (3 times). After drying, the remaining crystal violet was dissolved in 100 μL of 95% ethanol with gentle shaking, and the absorbance at 570 nm was recorded. The biofilm inhibition % was calculated as [1 – (ODTPA-1 – ODblank)/(ODmedium – ODblank)] × 100% where ODTPA-1, ODmedium and ODblank were the absorbances of the wells with bacteria treated TPA-1, with bacteria without treatment and with medium only, respectively. The experiment was performed in triplicate.

[3] = test system: S. aureus biofilm; test: Photodynamic eradication of biofilm bacteria; format: cell-based, Staphylococcus aureus; conditions: light irradiation at 600 nm for 45 min
Experimental: For biofilm bacteria, overnight culture of S. aureus or P. aeruginosa was diluted to 1 × 10^5 CFU/mL in TSB (with 1% glucose). Portion of 100 μL of the diluted bacteria culture was added to the wells of a 96-well plate. The plate was incubated under darkness for 24 h at 37 °C. Then, the planktonic bacterial suspensions were removed from the wells. The biofilms were washed with PBS (3 times) to remove any remaining planktonic bacteria. Different concentrations of TPA-1 were dissolved in PBS. TPA-1 solution was added to the biofilms (120 μL for S.aureus, 150 μL for P.aeruginosa). After 20 min of incubation under darkness at 30 °C, the biofilms were kept in the dark or irradiated by 600 nm light (60 mW/cm^2) for 15, 30, and 45 min. After that, the TPA-1 solution was replaced by 120 μL of PBS. The biofilm was then suspended in PBS by scratching, followed by sonication (5 min, ≤42 kHz) and vortex (5 min, 950 rpm). The number of viable bacteria was determined by the plate counting method. All experiments were carried out in triplicate.

[4] = Light toxicity on HFF-1 cells (MTT after PDT); format: cell-based; conditions: human, 600 nm light irradiation for 45 min
Experimental: HFF-1 cells were seeded in a 96-well plate with a density of 10,000 cells/well for 12 h at 37 °C in darkness. Different concentrations of TPA-1 were added to the cell culture medium and incubated for 20 min at 37 °C in darkness. The cells were then incubated in the dark or irradiated by 600 nm light for 45 min. The cell viability was then evaluated using the MTT assay, which was described in the cytotoxicity assay.

[5] = test system: S. aureus (ATCC 29213); test: MIC assay (broth microdilution, CLSI), without light; format: cell-based; conditions: Staphylococcus aureus, ATCC29213, light or radiation study; read-out: MIC against ATCC 29213 Staphylococcus aureus without light irradiation
Experimental: (§1) The MIC assays of TPA-1 were conducted according to the broth microdilution methods described in the Clinical and Laboratory Standards Institute (CLSI) standard. A single colony of S. aureus (ATCC 29213), methicillin-resistant S. aureus (BAA 41), or P. aeruginosa (ATCC 27853) on an LB agar plate was picked and suspended in Mueller–Hinton Broth (MHB). The bacterial culture was grown overnight at 37 °C. The next day, the bacteria culture was diluted 100 times in fresh MHB and grown to the mid log phase. Bacteria in the mid log phase were further diluted to 5 × 10^6 CFU/mL in cation-adjusted MHB (S. aureus) or MHB (P. aeruginosa). Ten μL of the diluted bacteria were added to a 96-well plate containing 90 μL of serial diluted TPA-1 in the corresponding medium. The plate was incubated overnight at 37 °C. The MICs of the TPA compounds were the concentrations at which no apparent bacteria were observed by the naked eye. Different concentrations of LTA were also added to examine the change in MIC values of TPA-1 against S. aureus. The experiments were conducted in triplicate.

[6] = test system: P. aeruginosa (ATCC 27853); test: as above; format: cell-based; conditions: Pseudomonas aeruginosa, ATCC27853, light or radiation study
Experimental: as §1

[7] = test system: methicillin-resistant S. aureus (BAA 41); test: as above; format: cell-based; conditions: Staphylococcus aureus
Experimental: as §1

**Q.** For C#CCC[n+]1c(/C=C/c2ccc(-c3ccc(N(c4ccc(OCCC[N+](C)(C)C)cc4)c4ccc(OCCC[N+](C)(C)C)cc4)cc3)s2)sc2ccccc21.[Br-].[Br-].[Br-] [TPA-1], which logP [1] is on record?
**A.** -1.6

**Q.** And the inhibition at 3.125 µM ([2]; 1 × MIC (3.125 μM))?
**A.** > 90%

**Q.** What about the inhibition at 6.25 µM ([2]; ≥ 6.25 μM) of the same compound?
**A.** > 99.9%

**Q.** What about the “S. aureus biofilm log CFU/mL reduction” value [3] of the same compound?
**A.** 1.18 ± 0.05 log CFU/mL

**Q.** And the “S. aureus in the biofilm eradicated” value [3]?
**A.** 92% ± 3%

**Q.** What about the viability at 45 min, 40 µM [4] of the same compound?
**A.** > 90%

**Q.** And the MIC [5]?
**A.** 3.12 µM

**Q.** What about the MIC ([6]; read-out: MIC against ATCC 27853 Pseudomonas aeruginosa without light irradiation) of the same compound?
**A.** 100 µM

**Q.** And the MIC ([6]; without light irradiation, read-out: MIC against P. aeruginosa (ATCC 27853))?
**A.** > 100 µM

**Q.** And the MIC ([7]; ATCC BAA-41 / BAA-41, light or radiation study, read-out: MIC against ATCC BAA41 Methicillin-resistant Staphylococcus aureus without light irradiation)?
**A.** 3.12 µM

**Q.** What about the MIC ([7]; BAA41, light or radiation study, read-out: MIC against methicillin-resistant S. aureus (BAA 41)) of the same compound?
**A.** 3.12 µM

— paper PMC12035805, “A Water-Soluble Aggregation-Induced Emission Photosensitizer with Intrinsic Antibacterial Activity as an Antiplanktonic and Antibiofilm Therapeutic Agent” (Journal of Medicinal Chemistry, 2025)
